“And” between values parts separate entries of the source, which are not always exact repeats. Equal values may be shown once. Read-outs that look alike come from different tables or passages of the source.
Experiments:
[1] = system: non-GFP-expressing HCMV (strain AD169); assay: classical plaque formation assay on HFFs; assay type: cell-based, human cytomegalovirus; details: Human betaherpesvirus 5, AD169, read-out: EC50, plaque formation assay
Method: (§1) In addition, EC50 values were confirmed using non-GFP-expressing HCMV (strain AD169) by a classical plaque formation assay on HFFs (n=4), providing data consistent with the GFP-based data shown in Table 1, that is, compound 7h, 7.3±0.7 μM; compound 8, 0.3±0.0 μM; compound 9, 0.3±0.1 μM. Moreover, antiviral activity was clearly separated from putative cytotoxic effects because of the results obtained with a standard trypan blue exclusion assay. […] Consistent with these findings are results from a MTS-based cell proliferation assay, showing moderate or no antiproliferative effects on HFFs for all analysed compounds in concentrations up to 30 μM (see Supplementary Fig. 5 and Supplementary Methods). Thus, the new quinazolines and hybrid compounds can be regarded as selective, which is one of the most important aspects in drug design.

HCMV AD169-GFP = assay: HCMV GFP-based replication assay (automated GFP fluorometry); assay type: cell-based, human cytomegalovirus
Method: The measurement of antiviral activity was based on automated fluorometry using a green fluorescent protein (GFP)-expressing, recombinant HCMV (excitation 485 nm, emission 535 nm; see Supplementary Note 2, Supplementary Data 1 and Supplementary Fig. 4 for dose–response curves).
HCMV GFP‐based replication assay and cell proliferation assay. The replication of human cytomegalovirus (HCMV) was determined by an established HCMV GFP-based replication assay as carried out over a duration of approx. seven days (multi-round infection) using cultures of primary human foreskin fibroblasts (HFFs). HFFs were cultivated in 12-well plates for the infection with a GFP-expressing recombinant human cytomegalovirus (HCMV AD169-GFP) and a signal quantitation using automated GFP fluorometry as described before.2-4 All data represent mean values of determinations in quadruplicate (HCMV infections performed in duplicate, GFP measurements of total cell lysates performed in duplicate). Processing and evaluation of data was performed by the use of Excel (means and standard deviations, see Supplementary Figure 4 and Supplementary Data 1). […]

[2] = trypan blue exclusion cytotoxicity assay; assay type: cell-based; details: human, primary HFFs (human foreskin fibroblasts), 0.2-100 μM for 3 days, n=6 (artesunic acid n=3)
Method: as §1
Cytotoxicity and Cell Proliferation Assays
Assays measuring distinct parameters of cytotoxicity and/or cell proliferation were performed as described earlier.7, 8 In brief, a trypan blue exclusion assay was performed with cultured cells seeded in 24-well plates and incubated with increasing concentrations of antiviral compounds (range of 0.2 μM to […]
before the percentage of viable cells was determined by microscopic counting (determination at least in triplicates). The cell proliferation assay (CellTiter 96 AQueous One Solution cell proliferation assay; Promega) was performed in a 96-well plate format after a 3-day treatment with compounds under standard conditions of measurement as described by the manufacturer. […]

primary HFFs = assay: confocal laser-scanning microscopy of cellular uptake of fluorescent compounds; assay type: cell-based, human; details: 1–10 μM, uninfected or HCMV-infected, 20 h incubation
Method: Figure 7 Microscopy-based visualization of cellular uptake of fluorescent quinazoline compounds. (a) Artesunic acid–quinazoline hybrids 8 and 9. (b–d) Compounds 7h, 7g and 9 were analysed for properties of fluorescence imaging using confocal laser-scanning microscopy. HFFs were cultivated in six-well plates on cover slips and were either directly incubated with compounds by addition to the culture media for 20 h (c) or were added after HCMV infection (b,d; compound addition at 50 h post infection, fixation and analysis of cells 20 h later; scale bar, 10 μm). The chosen concentrations were 10 μM for compounds 7h, 7g and 9, or 1 μM for compound 9 in panels 4, 9 (b), panels 5, 10 (c) and panels 6–10 (d), referring to the compounds' EC50 values of anti-HCMV activity (see Table 1). The depicted images are representative for three independent experiments. Lack of mycoplasm contamination was verified by routine 4,6-diamidino-2-phenylindole staining. General procedures of cell fixation, indirect immunofluorescence staining of proteins (d) and microscopic analysis have been described elsewhere.
When analysing primary HFFs, the fluorescent compounds 7g, 7h and 9 could nicely be depicted both in extracellular (transparent arrows) and intracellular localizations (filled arrows; Fig. 7b,c). […] A nonfluorescent artemisinin-derived control compound (Fig. 7c, panels 2 and 7; see also Supplementary Fig. 6), the DMSO panels (solvent controls) as well as the inspection of different excitation wavelengths of the confocal laser-scanning microscopy confirmed the specificity of signals and a lack of unwarranted cross-fluorescence. […] An indirect immunofluorescence counterstaining of viral and cellular proteins[36][37] led to the detection of nuclear markers, that is, the viral protein kinase pUL97 and cellular lamins type A/C (Fig. 7d, panels 4, 9, 14 or 5, 10, 15, respectively), in the context of extracellular and intracellular fluorescence signals of compounds 7h and 9 (Fig. 7d, panels 1–5 or 6–15, respectively). […]

[3] = Human betaherpesvirus 5, AD169, read-out: HCMV EC50
[4] = Human betaherpesvirus 5, AD169, read-out: EC50 (sheet Curves)

SMILES | EC50 [1] [nM] | GFP signal, % of Inf./DMSO, MW (mean) (HCMV AD169-GFP; 0.12 µM) [%] | GFP signal, % of Inf./DMSO, single determination (raw data) (HCMV AD169-GFP; 0.12 µM) | GFP signal, % of Inf./DMSO, MW (mean) (HCMV AD169-GFP; 0.37 µM) [%] | GFP signal, % of Inf./DMSO, single determination (raw data) (HCMV AD169-GFP; 0.37 µM) | GFP signal, % of Inf./DMSO, MW (mean) (HCMV AD169-GFP; 1.1 µM) [%] | GFP signal, % of Inf./DMSO, single determination (raw data) (HCMV AD169-GFP; 1.1 µM) | GFP signal, % of Inf./DMSO, MW (mean) (HCMV AD169-GFP; 3.3 µM) [%] | GFP signal, % of Inf./DMSO, single determination (raw data) (HCMV AD169-GFP; 3.3 µM) | GFP signal, % of Inf./DMSO, MW (mean) (HCMV AD169-GFP; 10 µM) [%] | GFP signal, % of Inf./DMSO, single determination (raw data) (HCMV AD169-GFP; 10 µM) | EC50 (HCMV AD169-GFP; [3]) [nM] | CC50 at 3 days [2] [µM] | cellular uptake (intracellular fluorescence) (primary HFFs) | GFP signal, % of Inf./DMSO, MW (mean) (HCMV AD169-GFP; 0.01 µM) [%] | GFP signal, % of Inf./DMSO, single determination (raw data) (HCMV AD169-GFP; 0.01 µM) | GFP signal, % of Inf./DMSO, MW (mean) (HCMV AD169-GFP; 0.04 µM) [%] | GFP signal, % of Inf./DMSO, single determination (raw data) (HCMV AD169-GFP; 0.04 µM) | EC50 (HCMV AD169-GFP; [4]) [nM]
N#Cc1c(-c2ccc(C(F)(F)F)cc2)cc(-c2ccc(C(F)(F)F)cc2)c2c(N)ncnc12 [7h] | 7300 ± 700 | 72 | 60% and 89% and 90% and 49% | 71 | 80% and 75% and 61% and 68% | 75 | 61% and 62% and 87% and 89% | 58 | 58% and 67% and 50% and 57% | 22 | 16% and 27% and 28% | 4600 ± 900 | > 100 | efficient cellular uptake |  |  |  |  | 
CC1CCC2C(C)C(OC(=O)CCC(=O)OCCCNc3ncnc4c(C#N)c(-c5ccc(C(F)(F)F)cc5)cc(-c5ccc(C(F)(F)F)cc5)c34)OC3OC4(C)CCC1C32OO4 (stereo not shown) [compound 9] | 300 ± 100 | 49 | 51% and 47% and 53% and 46% | 1.06 | 0.952% and 0.865% and 1.31% and 1.1% | 0.87 | 0.763% and 0.908% and 0.901% |  |  |  |  | 100 | > 100 | efficient cellular uptake | 84 | 73% and 98% and 95% and 70% | 81 | 84% and 89% and 73% and 77% | 
C[C@@H]1CC[C@H]2[C@@H](C)C(=O)O[C@@H]3O[C@@]4(C)CC[C@@H]1[C@]32OO4 [Artemisinin, reference compound] |  |  |  |  |  |  |  |  |  |  |  | > 10000 | > 100 |  |  |  |  |  | 
COc1ccc(-c2cc(-c3ccc(OC)cc3)c3c(N)ncnc3c2C#N)cc1 [7i] |  | 83 | 89% and 80% and 75% | 54 | 53% and 57% | 38 | 39% and 42% and 35% | 31 | 28% and 26% and 34% and 35% |  |  | 600 ± 100 | > 100 |  | 82 | 85% and 84% and 78% | 91 | 100% and 98% and 84% | 560
C[C@H]1[C@H](OC(=O)CCC(=O)O)O[C@@H]2O[C@@]3(C)CC[C@H]4[C@H](C)CC[C@@H]1[C@@]24OO3 [Artesunic acid, reference compound] |  |  |  |  |  |  |  |  |  |  |  | 3800 ± 400 | 82 ± 0.9 |  |  |  |  |  | 
CC1CCC2C(C)C(OC(=O)CCC(=O)OCCCNc3ncnc4c(C#N)c(-c5ccc(F)cc5)cc(-c5ccc(F)cc5)c34)OC3OC4(C)CCC1C32OO4 (stereo not shown) [compound 8] | 300 | 88 | 93% and 86% and 79% | 73 | 80% and 78% and 68% and 66% | 11 | 10% and 11% and 12% | 7 | 7.61% and 6.36% and 6% and 7% |  |  | 600 ± 100 | > 100 |  | 88 | 102% and 75% and 74% | 90 | 89% and 86% and 90% and 94% | 640
N#Cc1c(-c2ccc(F)cc2)cc(-c2ccc(F)cc2)c2c(N)ncnc12 [7g] |  | 93 | 82% and 87% and 122% and 80% | 94 | 94% and 96% and 90% | 79 | 73% and 94% and 71% and 79% | 62 | 61% and 63% and 60% and 66% | 10 |  | 4900 ± 200 | > 100 | efficient cellular uptake |  |  |  |  | 
Cc1ccc(-c2cc(-c3ccc(C)cc3)c3c(N)ncnc3c2C#N)cc1 [7b] |  | 87 | 98% and 91% and 76% and 82% | 89 | 81% and 82% and 95% and 98% | 62 | 65% and 63% and 64% and 56% | 53 | 55% and 51% and 56% |  |  | 9500 ± 4800 | > 100 |  | 89 | 90% and 87% and 92% | 89 | 91% and 86% and 89% and 90% | 
Nc1nc(O)c2ncn(COC(CO)CO)c2n1 [Ganciclovir, reference compound] |  |  |  |  |  |  |  |  |  |  |  | 2600 ± 500 | > 100 |  |  |  |  |  | 

Reference: article PMC5418574, “Facile access to potent antiviral quinazoline heterocycles with fluorescence properties via merging metal-free domino reactions” (Nature Communications, 2017)
